Active and inactive are the calls of the source.
What was measured:
Prothrombin = Prothrombin (Homo sapiens, UniProt P00734); assay: Thrombin 1536 HTS Dose Response Confirmation. [Related pubchem assays: 1046 (Thrombin 1536 HTS; hits were confirmed in this assay)]; assay type: functional
Estrogen receptor = biological target: T1, Estrogen receptor (Homo sapiens, UniProt P03372);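 also: potency for inhibiting coactivator peptide recruitment to the receptor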
T1 sequence (P03372 whole entry): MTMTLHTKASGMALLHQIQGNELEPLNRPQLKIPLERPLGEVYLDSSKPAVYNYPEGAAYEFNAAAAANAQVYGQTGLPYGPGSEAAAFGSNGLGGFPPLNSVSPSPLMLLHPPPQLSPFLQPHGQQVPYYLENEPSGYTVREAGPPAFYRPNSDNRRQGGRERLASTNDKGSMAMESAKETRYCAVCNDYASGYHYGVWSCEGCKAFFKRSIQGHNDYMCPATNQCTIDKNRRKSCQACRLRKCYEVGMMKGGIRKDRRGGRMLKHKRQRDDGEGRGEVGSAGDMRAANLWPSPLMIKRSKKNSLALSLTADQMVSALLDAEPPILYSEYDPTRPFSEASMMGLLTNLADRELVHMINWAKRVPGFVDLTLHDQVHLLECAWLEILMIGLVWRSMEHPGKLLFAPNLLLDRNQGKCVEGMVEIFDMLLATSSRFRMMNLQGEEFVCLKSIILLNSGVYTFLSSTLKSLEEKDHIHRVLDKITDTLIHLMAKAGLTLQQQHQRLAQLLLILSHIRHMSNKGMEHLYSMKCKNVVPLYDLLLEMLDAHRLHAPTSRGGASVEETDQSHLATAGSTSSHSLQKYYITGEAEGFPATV

[1] = Jurkat T cell cytotoxicity, dose response, cytotoxicity control for P. falciparum gametocyte viability project, luminescence (AID 1117277); assay type: functional, cell-based;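 also: potency reflects loss of cellular ATP meaning fewer viable cells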
[2] = P. falciparum late gametocyte killing, dose response, luminescence (AID 1117278); assay type: functional, cell-based;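 also: gametocytes exposed to compound for 24 hours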
[3] = cytotoxicity in HEK-293T cells, dose response, cytotoxicity control for BCR NF-kB inhibitor project, luminescence, B-cell screen hits (AID 489021); assay type: functional, cell-based;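 also: HEK-293T cells carrying an NF-kB luciferase reporter; cells exposed to compound for about 14 hours before viability readout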
[4] = HepG2 cell cytotoxicity, dose response, cytotoxicity control for Shn3 inhibitor project, CellTiter-Glo, cherry-picked (AID 624134); assay type: functional, cell-based
[5] = biological target: T2, COUP transcription factor 2 (Homo sapiens, UniProt P24468); assay: Luminescence-based cell-based high throughput dose response assay to identify inhibitors of COUP-TFII (NR2F2).; assay type: functional;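 also: HEK293 cells transiently cotransfected with COUP-TFII expression vector and reporter; luciferase reporter luminescence driven by COUP-TFII from the pX2-168 reporter plasmid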
T2 sequence (P24468 whole entry): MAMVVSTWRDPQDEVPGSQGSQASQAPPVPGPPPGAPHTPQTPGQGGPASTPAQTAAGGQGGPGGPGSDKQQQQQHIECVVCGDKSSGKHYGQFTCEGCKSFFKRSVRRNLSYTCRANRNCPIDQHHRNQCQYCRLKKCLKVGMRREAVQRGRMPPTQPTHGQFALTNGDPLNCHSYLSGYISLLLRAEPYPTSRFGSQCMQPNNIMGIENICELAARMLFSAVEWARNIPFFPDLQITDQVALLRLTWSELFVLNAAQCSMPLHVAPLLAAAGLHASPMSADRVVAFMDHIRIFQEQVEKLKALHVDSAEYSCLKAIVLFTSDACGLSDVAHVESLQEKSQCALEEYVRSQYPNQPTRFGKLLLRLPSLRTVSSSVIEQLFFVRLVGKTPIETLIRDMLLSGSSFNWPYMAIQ

[6] = Shn3 3'UTR reporter inhibitors, dose response, cell-based, Clone20 osteoblasts, firefly luciferase, cherry-picked (AID 624132); assay type: functional;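 also: firefly luciferase luminescence from reporter carrying the Shn3 3'UTR in osteoblasts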
[7] = biological target: T3, Carboxy-terminal domain RNA polymerase II polypeptide A small phosphatase 1 (Homo sapiens, UniProt Q9GZU7); assay: inhibitors of CTDSP1, concentration-response testing, biochemical assay, absorbance-based, actives from ultra-high-throughput screening (AID 540297); assay type: functional
T3 sequence (Q9GZU7 whole entry): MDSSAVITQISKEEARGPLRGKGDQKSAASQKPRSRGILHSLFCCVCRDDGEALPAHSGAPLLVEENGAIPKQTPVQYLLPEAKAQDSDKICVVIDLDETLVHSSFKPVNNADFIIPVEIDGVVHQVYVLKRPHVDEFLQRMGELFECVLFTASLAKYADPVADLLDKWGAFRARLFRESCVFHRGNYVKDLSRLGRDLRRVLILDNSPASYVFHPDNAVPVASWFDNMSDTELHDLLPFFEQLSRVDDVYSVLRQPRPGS

[8] = biological target: Induced myeloid leukemia cell differentiation protein Mcl-1 (Homo sapiens, UniProt Q07820); assay type: functional
[9] = IGROV1 ovarian cancer cell cytotoxicity, dose response, PAX8 inhibitor project, plate reader, dry powder samples (AID 743043); assay type: functional, cell-based; conditions: IGROV-1
Paired box protein Pax-8 = Paired box protein Pax-8 (Homo sapiens, UniProt Q06710); assay: inhibitors of PAX8-driven TPO luciferase reporter, dose response, RMG-I cells, cherry-pick (AID 687027); assay type: functional, cell-based;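 also: luciferase reporter driven by Pax8 target thyroperoxidase promoter measured by SteadyGlo luminescence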
[10] = cytotoxicity in OVCAR8 ovarian cancer cells, dose response, PAX8 project, cell-based, plate reader, dry powder samples (AID 743197); assay type: functional; conditions: OVCAR-8
[11] = NIH:OVCAR-3 ovarian cancer cell cytotoxicity, dose response, PAX8 inhibitor project, plate reader, dry powder samples (AID 743044); assay type: functional, cell-based
[12] = biological target: T4, Mannose-6-phosphate isomerase (Homo sapiens, UniProt P34949); assay: human PMI inhibitors, high substrate, primary screen, biochemical, fluorescence intensity, high mannose 6-phosphate (AID 1220)
T4 sequence (P34949 whole entry): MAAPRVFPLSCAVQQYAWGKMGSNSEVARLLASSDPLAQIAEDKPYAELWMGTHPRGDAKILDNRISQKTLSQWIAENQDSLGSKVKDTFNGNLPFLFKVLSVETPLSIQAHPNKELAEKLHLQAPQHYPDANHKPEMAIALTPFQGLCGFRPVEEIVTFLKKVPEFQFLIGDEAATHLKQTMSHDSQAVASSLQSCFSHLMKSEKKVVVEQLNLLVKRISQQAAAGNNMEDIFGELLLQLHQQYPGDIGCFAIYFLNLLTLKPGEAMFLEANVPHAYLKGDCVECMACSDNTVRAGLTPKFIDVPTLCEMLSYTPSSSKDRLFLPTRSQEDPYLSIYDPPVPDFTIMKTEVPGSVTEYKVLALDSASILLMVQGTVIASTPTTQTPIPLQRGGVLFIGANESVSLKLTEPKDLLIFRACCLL

Nonstructural protein 1 = Nonstructural protein 1 (Influenza A virus, UniProt Q194T2); assay type: functional, Influenza A virus (A/California/07/2009(H1N1))
Sequence of Nonstructural protein 1 (Q194T2 whole entry): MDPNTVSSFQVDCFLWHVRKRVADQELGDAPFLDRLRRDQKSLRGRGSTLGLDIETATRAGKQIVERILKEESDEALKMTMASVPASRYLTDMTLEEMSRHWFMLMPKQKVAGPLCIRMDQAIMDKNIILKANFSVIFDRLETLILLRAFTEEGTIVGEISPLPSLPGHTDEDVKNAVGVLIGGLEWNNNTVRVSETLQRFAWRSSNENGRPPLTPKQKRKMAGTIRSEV

Sequence of Paired box protein Pax-8 (Q06710 whole entry): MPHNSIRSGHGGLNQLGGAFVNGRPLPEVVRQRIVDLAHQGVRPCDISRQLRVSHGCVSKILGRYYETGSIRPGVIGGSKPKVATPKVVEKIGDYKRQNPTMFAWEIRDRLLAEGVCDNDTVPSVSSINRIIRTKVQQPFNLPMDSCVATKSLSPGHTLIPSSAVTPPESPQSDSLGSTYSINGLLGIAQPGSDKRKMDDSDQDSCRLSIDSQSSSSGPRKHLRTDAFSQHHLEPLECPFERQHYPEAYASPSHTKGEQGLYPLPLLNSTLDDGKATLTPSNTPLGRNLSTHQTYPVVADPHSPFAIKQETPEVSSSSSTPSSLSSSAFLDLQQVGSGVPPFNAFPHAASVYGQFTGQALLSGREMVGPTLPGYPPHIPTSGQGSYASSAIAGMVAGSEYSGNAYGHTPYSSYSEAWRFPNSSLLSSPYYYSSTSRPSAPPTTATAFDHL
Sequence of Induced myeloid leukemia cell differentiation protein Mcl-1 (Q07820 whole entry): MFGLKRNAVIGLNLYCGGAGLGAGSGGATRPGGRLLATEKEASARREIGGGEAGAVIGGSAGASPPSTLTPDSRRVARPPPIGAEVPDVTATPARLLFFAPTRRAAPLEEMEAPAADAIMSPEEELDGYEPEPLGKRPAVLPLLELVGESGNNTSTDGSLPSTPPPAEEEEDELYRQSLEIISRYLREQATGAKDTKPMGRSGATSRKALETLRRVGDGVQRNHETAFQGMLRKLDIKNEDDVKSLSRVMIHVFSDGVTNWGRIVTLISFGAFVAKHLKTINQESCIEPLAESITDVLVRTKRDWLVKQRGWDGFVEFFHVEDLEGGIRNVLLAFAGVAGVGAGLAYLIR

## NC(=O)c1c(NC(=O)Cn2nc(C(=O)O)c3ccccc3c2=O)sc2c1CCCC2
Prothrombin
  IC50: 24.3 µM (active)

## CCc1ccc2[nH]c(=O)c(CN(Cc3ccc4c(c3)OCO4)C(=O)c3ccco3)cc2c1
Estrogen receptor
  IC50: 26.2 µM (active)

## Cc1ccc(Nc2nnc(SCC(=O)NCc3ccco3)s2)cc1
Estrogen receptor
  IC50: 28.8 µM (active)

## COCC(=O)n1nc(-c2ccccc2)nc1NCc1cccs1
Prothrombin
  IC50: 0.467 µM (active)

## Cc1onc(-c2ccccc2Cl)c1C(=O)NCCN1CCOCC1
[1]
  IC50: > 83.4 µM (inactive)
[2]
  IC50: > 109 µM (inactive)

## COc1ccccc1NC(=O)CSc1nnc(-c2ccc(NC(C)=O)cc2)n1C
[1]
  IC50: > 83.3 µM (inactive)
[2]
  IC50: > 109 µM (inactive)

## COC(=O)C1=C(c2ccc(-c3ccccc3)c(F)c2)C[C@@H]2CC[C@H]1N2C(=O)N1CCCC1
[3]
  IC50: > 80 µM (inactive)
[4]
  AC50: 6.77 µM (active)
[5]
  IC50: 8.17 µM (active)
[6]
  AC50: 6.06 µM (active)

## CC(Cc1ccccn1)NC(=O)CCc1nnc(C2CCCCC2)o1 (stereo not given)
[1]
  IC50: > 83.3 µM (inactive)
[2]
  IC50: > 109 µM (inactive)

## COc1ccccc1/C=c1\sc2nc(-c3ccco3)nn2c1=O
[7]
  IC50: 5 µM (active)
[8]
  IC50: 7.38 µM (active)
Estrogen receptor
  IC50: 17.5 µM (active)

## C[C@@H]1CCCCO[C@@H](CN(C)Cc2ccc(Cl)c(Cl)c2)[C@H](C)CN([C@H](C)CO)C(=O)c2cc(NS(=O)(=O)c3ccc(Cl)cc3)ccc2O1
[9]
  AC50: 59.2 µM (active)
Paired box protein Pax-8
  AC50: 8.68 µM (active)
[10]
  AC50: > 70 µM (inactive)

## O=C(c1ccccc1F)N1CC(=O)N2[C@@H](CO)[C@@H](c3ccc(C#Cc4ccc(F)cc4)cc3)[C@@H]2C1
[9]
  AC50: 19.2 µM (active)
Paired box protein Pax-8
  AC50: 5.77 µM (active)
[10]
  AC50: 41.1 µM (active)
[11]
  AC50: 8.76 µM (active)

## C[C@@H]1CCCCO[C@@H](CN(C)Cc2ccc(C(F)(F)F)cc2)[C@H](C)CN([C@@H](C)CO)C(=O)c2cc(NC(=O)NC3CCCCC3)ccc2O1
[9]
  AC50: 50.9 µM (active)
Paired box protein Pax-8
  AC50: 8.39 µM (active)
[10]
  AC50: 37.5 µM (active)
[11]
  AC50: 45.2 µM (active)

## OCC(CO)(CO)/N=C/c1c(O)ccc2ccccc12
[12]
  IC50: 38.6 µM (active)

## COc1ccc(N2CC(C(=O)N/N=C/c3cc([N+](=O)[O-])ccc3O)CC2=O)cc1 (stereo not given)
Nonstructural protein 1
  IC50: 17.8 µM (active)

Source: ChEMBL document CHEMBL1201862, “PubChem BioAssay data set” (2004)
